Source: patent US20260337208A1, “HETEROCYCLIC DERIVATIVES AS JANUS KINASE INHIBITORS” (CHIESI FARMACEUTICI S.P.A., priority 2022, published 2026)

How the values were obtained:
JAK2 = JAK2 (Homo sapiens, UniProt O60674); experiment: Biochemical potency on JAK2, TR-FRET (LANCE Ultra kinase assay); settings: ATP corresponding to Km; cell-free; read-out: JAK2 inhibitory activity (pIC50) (converted)
Protocol: (§1) The objective of this study was to assess the capability of compounds to inhibit all 4 JAK isoforms activity in a cell-free environment. Assay for JAK 1, JAK 2, JAK 3 and TYK2 were performed by Time-resolved fluorescence resonance energy transfer (TR-FRET) technology. It consists in the interaction of two labelled binding partners detected by the energy transfer from an excited donor to an acceptor dye and measurement of light emission by the acceptor dye. LANCE Ultra kinase assay was used. In presence of JAK 1, JAK 2, JAK 3 and TYK2 kinases and ATP (corresponding to Km), the ULight peptide substrate (LANCE Ulight-JAK-1 (Tyr1023) Peptide, Perkin Elmer, TRF0121) is phosphorylated. It is then captured by Eu-anti-phospho-substrate antibody (LANCE Eu-W1024 Anti-phosphotyrosine (PT66), Perkin Elmer, AD0069), which bring the Eu-chelate donor and ULight acceptor dyes into close proximity. Upon excitation at 320 nm, the Eu-chelate transfers its energy to the ULight dye, resulting in a fluorescent light emission at 665 nm.
(§2) Serial dilutions of compounds in pure DMSO are prepared from 10 mM DMSO stock solutions. Compounds were tested in 384-well plate for 11 consecutive 5-fold dilutions starting from 20 μM highest concentration (20 μM-[…]). 200 nL of compound were transferred from mother plate to test plate by using Mosquito (TTP labtech). Assay was performed in 384-well Perkin Elmer test plate in 20 μL assay volume (kinase reaction) and 40 μL total volume (stopping reagent and antibody detection reagents). In 10 μL of substrate solution (peptide+ATP) 30/50/20/10 nM of peptide and 20/0.7/0.2/12 μM of ATP were added for JAK 1, JAK 2, JAK 3 and TYK2 respectively. 10 μL of enzyme solution was added to kinase reaction at these concentrations: 0.15/0.083/0.025/0.144 ng/μL of JAK 1, JAK 2, JAK 3 and TYK2 respectively. After shaking and 1.5 h of incubation at r.t., 20 μL of Stop (10 μL EDTA) and Detection mixture (10 μL Europium-anti-phospho antibody, final: 0.5 nM) were added. Reading was performed after 1 h of incubation on a En Vision 2104 reader (Perkin Elmer).
(§3) Calculation of IC50 data, curves and QC analysis was performed by using Excel tool and GraphPadPrism software, v9. Briefly, individual concentration-effect curves are generated by plotting the logarithm of the tested concentration of tested compounds (X) vs. corresponding percent inhibition values (Y) using least squares (ordinary) fit. Best fit IC50 values are calculated using Log (inhibitor) vs. normalized response—Variable slope equation, where Y=100/(1+10^((LogIC50−X)*HillSlope)). QC criteria parameters (Z′, S:B, R2, HillSlope) were checked for every IC50 curve. Calculation of IC50 data, curves and QC analysis were made using Excel tools and GraphPadPrism software. QC criteria parameters: Z′≥0.5, Hill Slope range 0.5 to 5, S:B>2.

JAK1 = JAK1 (Homo sapiens, UniProt P23458); experiment: Biochemical potency on JAK1, TR-FRET (LANCE Ultra kinase assay); settings: ATP corresponding to Km; cell-free; read-out: JAK1 inhibitory activity (pIC50) (converted)
Sequence of JAK1 (P23458 whole entry): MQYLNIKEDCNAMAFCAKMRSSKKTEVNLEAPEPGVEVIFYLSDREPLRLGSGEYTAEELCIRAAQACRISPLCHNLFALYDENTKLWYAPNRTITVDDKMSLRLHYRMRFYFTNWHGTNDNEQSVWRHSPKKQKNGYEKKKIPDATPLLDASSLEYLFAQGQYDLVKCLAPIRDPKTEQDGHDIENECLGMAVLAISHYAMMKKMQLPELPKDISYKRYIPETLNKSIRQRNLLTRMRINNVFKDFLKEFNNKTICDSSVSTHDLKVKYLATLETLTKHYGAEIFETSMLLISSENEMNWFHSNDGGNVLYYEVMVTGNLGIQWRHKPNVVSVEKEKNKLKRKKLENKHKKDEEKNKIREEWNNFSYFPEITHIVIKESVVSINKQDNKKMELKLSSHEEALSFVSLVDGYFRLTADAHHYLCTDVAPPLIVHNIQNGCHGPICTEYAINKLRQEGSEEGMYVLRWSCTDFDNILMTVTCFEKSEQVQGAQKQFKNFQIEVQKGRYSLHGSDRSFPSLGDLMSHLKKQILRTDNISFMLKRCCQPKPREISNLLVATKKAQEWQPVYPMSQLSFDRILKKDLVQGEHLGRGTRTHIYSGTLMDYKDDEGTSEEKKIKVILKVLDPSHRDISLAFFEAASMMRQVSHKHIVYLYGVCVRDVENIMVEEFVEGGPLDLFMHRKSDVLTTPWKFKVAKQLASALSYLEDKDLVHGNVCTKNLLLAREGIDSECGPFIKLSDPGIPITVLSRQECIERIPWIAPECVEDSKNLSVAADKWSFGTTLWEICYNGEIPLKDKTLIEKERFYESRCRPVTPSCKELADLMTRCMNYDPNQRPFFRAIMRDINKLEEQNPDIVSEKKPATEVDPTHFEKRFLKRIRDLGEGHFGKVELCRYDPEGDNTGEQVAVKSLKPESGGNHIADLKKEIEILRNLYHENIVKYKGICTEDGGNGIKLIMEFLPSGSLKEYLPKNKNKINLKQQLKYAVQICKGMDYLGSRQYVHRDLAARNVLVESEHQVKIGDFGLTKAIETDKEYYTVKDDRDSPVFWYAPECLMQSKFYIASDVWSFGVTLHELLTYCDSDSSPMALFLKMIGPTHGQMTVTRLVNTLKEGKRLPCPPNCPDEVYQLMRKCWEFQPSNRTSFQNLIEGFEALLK
Protocol: as §1, §2, §3

JAK3 = target: T1, JAK3 (Homo sapiens, UniProt P52333); experiment: Biochemical potency on JAK3, TR-FRET (LANCE Ultra kinase assay); settings: ATP corresponding to Km; cell-free; read-out: JAK3 inhibitory activity (pIC50) (converted)
T1 sequence (P52333 1-1124): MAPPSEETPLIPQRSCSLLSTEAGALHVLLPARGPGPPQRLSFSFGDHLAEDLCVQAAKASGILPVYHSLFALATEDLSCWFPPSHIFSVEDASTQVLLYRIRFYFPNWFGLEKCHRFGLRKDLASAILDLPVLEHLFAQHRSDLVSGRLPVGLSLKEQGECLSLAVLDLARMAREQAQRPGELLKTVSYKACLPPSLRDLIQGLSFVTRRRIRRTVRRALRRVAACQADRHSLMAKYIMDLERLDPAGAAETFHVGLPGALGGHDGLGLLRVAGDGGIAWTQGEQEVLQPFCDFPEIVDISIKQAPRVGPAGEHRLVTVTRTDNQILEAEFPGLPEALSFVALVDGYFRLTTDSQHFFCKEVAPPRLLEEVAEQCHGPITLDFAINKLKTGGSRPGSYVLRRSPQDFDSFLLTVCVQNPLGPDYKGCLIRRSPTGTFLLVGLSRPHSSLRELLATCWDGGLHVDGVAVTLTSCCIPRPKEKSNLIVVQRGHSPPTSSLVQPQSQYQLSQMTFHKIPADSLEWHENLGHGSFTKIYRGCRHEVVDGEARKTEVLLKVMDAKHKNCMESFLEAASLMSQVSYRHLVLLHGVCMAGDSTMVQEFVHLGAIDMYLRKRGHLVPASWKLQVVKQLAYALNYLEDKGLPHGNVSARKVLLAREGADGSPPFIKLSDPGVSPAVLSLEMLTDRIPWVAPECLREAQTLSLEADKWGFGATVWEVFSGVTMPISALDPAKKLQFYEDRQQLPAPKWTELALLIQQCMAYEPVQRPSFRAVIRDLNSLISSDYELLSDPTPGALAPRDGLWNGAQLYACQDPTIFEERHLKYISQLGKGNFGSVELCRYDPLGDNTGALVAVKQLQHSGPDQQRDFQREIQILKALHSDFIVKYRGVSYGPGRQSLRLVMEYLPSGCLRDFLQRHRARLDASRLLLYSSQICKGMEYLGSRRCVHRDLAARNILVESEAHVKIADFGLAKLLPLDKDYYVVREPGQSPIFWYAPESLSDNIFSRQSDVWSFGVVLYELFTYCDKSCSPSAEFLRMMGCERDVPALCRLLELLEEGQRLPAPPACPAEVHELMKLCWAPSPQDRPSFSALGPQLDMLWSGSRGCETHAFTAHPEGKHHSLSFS
Protocol: as §1, §2, §3

TYK2 = TYK2 (Homo sapiens, UniProt P29597); experiment: Biochemical potency on Tyk2, TR-FRET (LANCE Ultra kinase assay); settings: ATP corresponding to Km; cell-free; read-out: TYK2 inhibitory activity (pIC50) (converted)
Sequence of TYK2 (P29597 whole entry): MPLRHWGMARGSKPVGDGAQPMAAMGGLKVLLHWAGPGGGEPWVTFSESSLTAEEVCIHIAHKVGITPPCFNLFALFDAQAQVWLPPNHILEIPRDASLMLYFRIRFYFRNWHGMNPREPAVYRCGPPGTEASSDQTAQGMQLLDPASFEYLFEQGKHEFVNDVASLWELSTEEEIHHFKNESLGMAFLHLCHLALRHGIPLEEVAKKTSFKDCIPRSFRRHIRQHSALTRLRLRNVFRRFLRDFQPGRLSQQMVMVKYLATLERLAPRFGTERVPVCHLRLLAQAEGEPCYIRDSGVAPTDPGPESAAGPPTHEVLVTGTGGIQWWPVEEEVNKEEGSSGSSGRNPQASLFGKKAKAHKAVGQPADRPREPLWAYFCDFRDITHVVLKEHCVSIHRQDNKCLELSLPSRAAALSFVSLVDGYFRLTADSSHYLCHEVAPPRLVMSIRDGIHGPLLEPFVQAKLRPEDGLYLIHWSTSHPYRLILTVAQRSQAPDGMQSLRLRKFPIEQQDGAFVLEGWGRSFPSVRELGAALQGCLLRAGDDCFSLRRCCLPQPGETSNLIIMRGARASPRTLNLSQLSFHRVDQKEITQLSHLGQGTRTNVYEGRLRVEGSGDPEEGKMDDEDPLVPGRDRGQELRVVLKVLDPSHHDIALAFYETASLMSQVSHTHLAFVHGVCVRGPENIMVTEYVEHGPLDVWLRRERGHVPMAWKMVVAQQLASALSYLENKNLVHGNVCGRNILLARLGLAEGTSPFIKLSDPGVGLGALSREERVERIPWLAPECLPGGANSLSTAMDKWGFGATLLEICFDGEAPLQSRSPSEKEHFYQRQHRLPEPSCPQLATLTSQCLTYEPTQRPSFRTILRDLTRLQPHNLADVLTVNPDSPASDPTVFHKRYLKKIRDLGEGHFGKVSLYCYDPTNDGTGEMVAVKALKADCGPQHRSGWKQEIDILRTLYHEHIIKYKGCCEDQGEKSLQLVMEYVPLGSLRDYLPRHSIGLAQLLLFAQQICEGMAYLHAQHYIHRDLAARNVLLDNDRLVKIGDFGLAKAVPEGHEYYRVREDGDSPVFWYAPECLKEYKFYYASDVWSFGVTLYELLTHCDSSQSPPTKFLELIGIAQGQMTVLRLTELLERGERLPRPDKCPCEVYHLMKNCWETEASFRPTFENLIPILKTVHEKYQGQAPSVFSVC
Protocol: as §1, §2, §3

[1] = system: pSTAT6 in BEAS-2B human cell line; experiment: Inhibition of IL-13 induced pSTAT6 in BEAS; format: cell-based; settings: for IC50: Homo sapiens, BEAS-2B, 0.5 h, IL-13 trigger, 30 min, parent compound; for Fold difference parent vs predicted acid metabolite: ratio=IC50 predicted acid metabolite/IC50 ester
Procedure, shortened: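 BEAS-2B cells grown 48 h, pre-treated 30 min with compound, then stimulated 30 min with IL-13. Lysate pSTAT6 (Tyr641) measured by sandwich ELISA. Eleven 5-fold dilutions from 10 μM, in duplicate, fitted to IC50.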

Sequence of JAK2 (O60674 whole entry, canonical isoform): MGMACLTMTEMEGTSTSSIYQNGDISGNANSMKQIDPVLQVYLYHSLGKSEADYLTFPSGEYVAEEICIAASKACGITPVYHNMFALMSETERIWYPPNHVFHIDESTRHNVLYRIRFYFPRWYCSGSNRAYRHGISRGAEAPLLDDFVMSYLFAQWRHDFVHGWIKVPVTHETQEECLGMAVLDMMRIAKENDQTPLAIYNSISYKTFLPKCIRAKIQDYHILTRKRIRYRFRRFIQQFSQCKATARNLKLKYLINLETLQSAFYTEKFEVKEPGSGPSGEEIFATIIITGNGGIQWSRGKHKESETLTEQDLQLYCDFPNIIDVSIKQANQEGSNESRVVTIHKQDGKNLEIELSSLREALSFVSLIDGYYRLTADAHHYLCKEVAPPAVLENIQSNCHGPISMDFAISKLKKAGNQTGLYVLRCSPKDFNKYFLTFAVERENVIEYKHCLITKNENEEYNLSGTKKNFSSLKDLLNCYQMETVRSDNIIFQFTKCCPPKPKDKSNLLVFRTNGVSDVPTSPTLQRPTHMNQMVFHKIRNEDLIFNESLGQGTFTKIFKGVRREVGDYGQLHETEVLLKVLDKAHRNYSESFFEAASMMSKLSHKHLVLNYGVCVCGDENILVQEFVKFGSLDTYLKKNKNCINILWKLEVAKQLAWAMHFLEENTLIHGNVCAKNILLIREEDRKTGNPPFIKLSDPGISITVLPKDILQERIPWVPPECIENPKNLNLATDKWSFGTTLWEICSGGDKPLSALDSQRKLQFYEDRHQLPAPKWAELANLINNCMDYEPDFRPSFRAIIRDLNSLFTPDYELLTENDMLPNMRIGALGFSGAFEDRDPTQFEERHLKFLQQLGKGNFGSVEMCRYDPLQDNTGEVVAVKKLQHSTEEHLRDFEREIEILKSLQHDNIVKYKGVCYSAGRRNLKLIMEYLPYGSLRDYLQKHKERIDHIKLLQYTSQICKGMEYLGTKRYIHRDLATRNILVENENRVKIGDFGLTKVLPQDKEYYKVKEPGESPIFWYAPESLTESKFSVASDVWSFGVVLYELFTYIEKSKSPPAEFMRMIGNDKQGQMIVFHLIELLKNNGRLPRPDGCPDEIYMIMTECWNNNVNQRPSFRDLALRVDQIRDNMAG

COc1cc2c(cc1-n1nc(C(=O)NCCN3CCC(C(=O)OCC4CCOCC4)CC3)c3cnc(-c4cnn5cccnc45)cc31)OCCN2 [Example 18, (tetrahydro-2H-pyran-4-yl)methyl 1-(2-(1-(6-methoxy-3,4-dihydro-2H-benzo[b][1,4]oxazin-7-yl)-6-(pyrazolo[1,5-a]pyrimidin-3-yl)-1H-pyrazolo[4,3-c]pyridine-3-carboxamido)ethyl)piperidine-4-carboxylate]
IC50 (JAK2): ≤ 5.01 nM
IC50 (JAK1): ≤ 5.01 nM
IC50 (JAK3): ≤ 5.01 nM
IC50 (TYK2): 5.01 to 50.1 nM
IC50 [1]: ≤ 5.01 nM
Fold difference parent vs predicted acid metabolite [1]: kkkk (ratio≥200)

COc1cc2c(cc1-n1nc(C(=O)NCCN3CCC(C(=O)OCC4CN(C)CCO4)CC3)c3cnc(-c4cnn5cccnc45)cc31)OCCN2 (centres unmarked) [Example 19, (4-methylmorpholin-2-yl)methyl 1-(2-(1-(6-methoxy-3,4-dihydro-2H-benzo[b][1,4]oxazin-7-yl)-6-(pyrazolo[1,5-a]pyrimidin-3-yl)-1H-pyrazolo[4,3-c]pyridine-3-carboxamido)ethyl)piperidine-4-carboxylate]
IC50 (JAK2): ≤ 5.01 nM
IC50 (JAK1): ≤ 5.01 nM
IC50 (JAK3): ≤ 5.01 nM
IC50 (TYK2): 5.01 to 50.1 nM
IC50 [1]: ≤ 5.01 nM
Fold difference parent vs predicted acid metabolite [1]: kkkk (ratio≥200)

COc1cc2c(cc1-n1nc(C(=O)NCCN3CCC(C(=O)OCC(C)(C)N(C)C)CC3)c3cnc(-c4cnn5cccnc45)cc31)OCCN2 [Example 20, 2-(dimethylamino)-2-methylpropyl 1-(2-(1-(6-methoxy-3,4-dihydro-2H-benzo[b][1,4]oxazin-7-yl)-6-(pyrazolo[1,5-a]pyrimidin-3-yl)-1H-pyrazolo[4,3-c]pyridine-3-carboxamido)ethyl)piperidine-4-carboxylate]
IC50 (JAK2): ≤ 5.01 nM
IC50 (JAK1): ≤ 5.01 nM
IC50 (JAK3): ≤ 5.01 nM
IC50 (TYK2): 5.01 to 50.1 nM
IC50 [1]: 5.01 to 50.1 nM
Fold difference parent vs predicted acid metabolite [1]: kkk (200>ratio≥100)

COc1cc2c(cc1-n1nc(C(=O)NCCN3CCC(C(=O)OC4CN(C)C4)CC3)c3cnc(-c4cnn5cccnc45)cc31)OCCN2 [Example 21, 1-methylazetidin-3-yl 1-(2-(1-(6-methoxy-3,4-dihydro-2H-benzo[b][1,4]oxazin-7-yl)-6-(pyrazolo[1,5-a]pyrimidin-3-yl)-1H-pyrazolo[4,3-c]pyridine-3-carboxamido)ethyl)piperidine-4-carboxylate]
IC50 (JAK2): ≤ 5.01 nM
IC50 (JAK1): ≤ 5.01 nM
IC50 (JAK3): ≤ 5.01 nM
IC50 (TYK2): 5.01 to 50.1 nM
IC50 [1]: ≤ 5.01 nM
Fold difference parent vs predicted acid metabolite [1]: kkkk (ratio≥200)

COc1cc2c(cc1-n1nc(C(=O)NCCN3CCC(C(=O)OC4CCN(C)C4)CC3)c3cnc(-c4cnn5cccnc45)cc31)OCCN2 (centres unmarked) [Example 22, 1-methylpyrrolidin-3-yl 1-(2-(1-(6-methoxy-3,4-dihydro-2H-benzo[b][1,4]oxazin-7-yl)-6-(pyrazolo[1,5-a]pyrimidin-3-yl)-1H-pyrazolo[4,3-c]pyridine-3-carboxamido)ethyl)piperidine-4-carboxylate]
IC50 (JAK2): ≤ 5.01 nM
IC50 (JAK1): 5.01 to 50.1 nM
IC50 (JAK3): ≤ 5.01 nM
IC50 (TYK2): 5.01 to 50.1 nM
IC50 [1]: 5.01 to 50.1 nM
Fold difference parent vs predicted acid metabolite [1]: kkk (200>ratio≥100)

COc1cc2c(cc1-n1nc(C(=O)NCCN3CCC(C(=O)O[C@@H]4CCN(C)C4)CC3)c3cnc(-c4cnn5cccnc45)cc31)OCCN2 [Example 23, (R)-1-methylpyrrolidin-3-yl 1-(2-(1-(6-methoxy-3,4-dihydro-2H-benzo[b][1,4]oxazin-7-yl)-6-(pyrazolo[1,5-a]pyrimidin-3-yl)-1H-pyrazolo[4,3-c]pyridine-3-carboxamido)ethyl)piperidine-4-carboxylate]
IC50 (JAK2): ≤ 5.01 nM
IC50 (JAK1): ≤ 5.01 nM
IC50 (JAK3): ≤ 5.01 nM
IC50 (TYK2): 5.01 to 50.1 nM
IC50 [1]: 5.01 to 50.1 nM
Fold difference parent vs predicted acid metabolite [1]: kkk (200>ratio≥100)

COc1cc2c(cc1-n1nc(C(=O)NCCN3CCC(C(=O)O[C@H]4CCN(C)C4)CC3)c3cnc(-c4cnn5cccnc45)cc31)OCCN2 [Example 24, (S)-1-methylpyrrolidin-3-yl 1-(2-(1-(6-methoxy-3,4-dihydro-2H-benzo[b][1,4]oxazin-7-yl)-6-(pyrazolo[1,5-a]pyrimidin-3-yl)-1H-pyrazolo[4,3-c]pyridine-3-carboxamido)ethyl)piperidine-4-carboxylate]
IC50 (JAK2): ≤ 5.01 nM
IC50 (JAK1): ≤ 5.01 nM
IC50 (JAK3): ≤ 5.01 nM
IC50 (TYK2): 5.01 to 50.1 nM
IC50 [1]: 5.01 to 50.1 nM
Fold difference parent vs predicted acid metabolite [1]: kkk (200>ratio≥100)

COc1cc2c(cc1-n1nc(C(=O)NCCN3CCC(C(=O)OCC(C)(C)C#N)CC3)c3cnc(-c4cnn5cccnc45)cc31)OCCN2 [Example 25, 2-cyano-2-methylpropyl 1-(2-(1-(6-methoxy-3,4-dihydro-2H-benzo[b][1,4]oxazin-7-yl)-6-(pyrazolo[1,5-a]pyrimidin-3-yl)-1H-pyrazolo[4,3-c]pyridine-3-carboxamido)ethyl)piperidine-4-carboxylate]
IC50 (JAK2): ≤ 5.01 nM
IC50 (JAK1): ≤ 5.01 nM
IC50 (JAK3): ≤ 5.01 nM
IC50 (TYK2): 5.01 to 50.1 nM
IC50 [1]: ≤ 5.01 nM
Fold difference parent vs predicted acid metabolite [1]: kkkk (ratio≥200)

COc1cc2c(cc1-n1nc(C(=O)NCCCN3CCC(C(=O)OC4CCN(C)CC4)CC3)c3cnc(-c4cnn5cccnc45)cc31)OCCN2 [Example 26, 1-methylpiperidin-4-yl 1-(3-(1-(6-methoxy-3,4-dihydro-2H-benzo[b][1,4]oxazin-7-yl)-6-(pyrazolo[1,5-a]pyrimidin-3-yl)-1H-pyrazolo[4,3-c]pyridine-3-carboxamido)propyl)piperidine-4-carboxylate]
IC50 (JAK2): ≤ 5.01 nM
IC50 (JAK1): 5.01 to 50.1 nM
IC50 (JAK3): ≤ 5.01 nM
IC50 (TYK2): 5.01 to 50.1 nM
IC50 [1]: 5.01 to 50.1 nM
